Experimental data taken from publication PMC10384408, “Anticancer Tungstenocenes with a Diverse Set of (O,O–), (O,S–) and (O,N–) Chelates—A Detailed Biological Study Using an Improved Evaluation via 3D Spheroid Models” (Pharmaceutics, 2023).
Where two headings read alike, the source gives them in different places.

Assays:
[1] = tested on: IMR-90 human lung fibroblasts; assay: MTT cytotoxicity assay, IMR-90 fibroblasts; format: cell-based; settings: exposure time 96 h, mean ± SD
Experimental: (§1) CH1/PA-1 (ovarian teratocarcinoma), SW480 (colon carcinoma) and A549 (non-small cell lung cancer) cells were maintained as described in the reference. IMR-90 human fetal lung fibroblasts (from the European Collection of Authenticated Cell Cultures, Porton Down, Salisbury, UK) were cultured in Stable Cell^TM DMEM/F12 supplemented with 0.01 mg/mL human recombinant insulin (both purchased from Sigma-Aldrich) and 10% fetal bovine serum (FBS, BioWest, Nuaillé, France). Human colon carcinoma cell lines HCT116 and HT29 (both kindly provided by the Institute of Cancer Research, Department of Medicine I, Medical University of Vienna, Austria) were cultured in McCoy’s 5a medium supplemented with 4 mM L-glutamine (both purchased from Sigma-Aldrich) and 10% FBS. MCF-7 human breast adenocarcinoma cells (kindly provided by M. Ogris, Department of Pharmaceutical Sciences, University of Vienna, Austria) were maintained in DMEM (high glucose) supplemented with 4 mM L-glutamine, 0.1 mg/mL human insulin (all purchased from Sigma-Aldrich) and 10% FBS. All cell lines were grown as monolayers in 75 cm^2 culture flasks (CytoOne, Starlab, Hamburg, Germany) at 37 °C in a humidified atmosphere containing 5% CO2.
(§2) Exponentially growing cells were plated into 96-well microculture plates (CytoOne, tissue culture treated, Starlab, Hamburg, Germany) in densities of 1 × 10^3 CH1/PA-1, 2 × 10^3 SW480, 3 × 10^3 A549 and 7 × 10^3 IMR-90 cells per well (each in 100 µL). After a 24 h preincubation, drugs were added in serial dilution to give a final volume of 200 µL/well and exposed for 96 h. At the end of the exposure, the drug solutions were replaced by 100 µL RPMI 1640/MTT mixture (7:1 ratio). MTT (3-(4,5-dimethylthiazol-2-yl)-2,5-diphenyl-2H-tetrazolium bromide), (Acros Organics, Geel, Belgium) solution was prepared in phosphate-buffered saline (5 mg/mL) and mixed with RPMI1640 medium supplemented with 4 mM L-glutamine (both from Sigma-Aldrich) and 10% FBS. After 4 h incubation, the formazan crystals were solubilized in 150 µL of DMSO per well. Absorbance was measured at 550 nm (and at 690 nm as a reference) with a microplate reader (ELx808, BioTek, Winoosky, VT, USA) and Gen5^TM 3.08 software (BioTek). The 50% inhibitory concentrations (IC50) relative to untreated controls were interpolated from concentration-effect curves. At least three biologically and technically independent experiments were performed.

[2] = tested on: A549 (non-small cell lung carcinoma) cells; settings: MTT assay, 96 h; cited from earlier work
[3] = tested on: SW480 (colon carcinoma) cells; settings: MTT assay, 96 h; cited from earlier work
[4] = tested on: CH1/PA-1 (ovarian teratocarcinoma) cells; settings: MTT assay, 96 h; cited from earlier work
[5] = tested on: A549 (non-small cell lung carcinoma) cells; assay: MTT cytotoxicity assay, A549 monolayer; format: cell-based, human; settings: for activity in A549: 96 h; for IC50: exposure time 96 h, mean ± SD
Experimental: as §1, §2

[6] = tested on: SW480 (colon carcinoma) cells; assay: MTT cytotoxicity assay, SW480 monolayer; format: cell-based, human; settings: for activity in SW480: 96 h; for IC50: exposure time 96 h, mean ± SD
Experimental: as §1, §2

[7] = tested on: CH1/PA-1 (ovarian teratocarcinoma) cells; assay: MTT cytotoxicity assay, CH1/PA-1 monolayer; format: cell-based, human; settings: exposure time 96 h, mean ± SD
Experimental: as §1, §2

[8] = Solubility in PBS (1% DMSO); format: physicochemical
Experimental: Stock solutions in DMSO of compounds 1–10 were utilized to determine the solubility in PBS by adding 1 vol% of the stock solution to a suitable amount of PBS. […] UV/Vis data were recorded on a Perkin Elmer Lambda 650 UV/Vis Spectrophotometer with a Peltier element for temperature control.

[9] = Cyclic voltammetry in MeCN (W(IV) to W(V)); format: physicochemical; settings: vs. NHE, scan rate 200 mV/s
Experimental: NMR spectra were recorded with a Bruker FT-NMR Avance III^TM 500 MHz spectrometer at 500.10 (^1H), and 125.75 MHz (^13C) using DMSO–d6. 2D-NMR measurements were recorded utilizing standard pulse programs COSY, HSQC and HMBC. The Microanalytical Laboratory of the University of Vienna performed the elemental analyses with a Eurovector EA 3000(2009) equipped with a high temperature pyrolysis furnace (HT, Hekatech, Germany, 2009). Elemental analyses’ samples were weighed (weights from 1–3 mg were used) on a Sartorius SEC 2 ultra-micro balance with ±0.1 µg resolution. Two NIST-certified reference materials were used for calibration: sulfanilamide (C6H8N2O2S) and BBOT (2,5-bis-(5-tert-butyl-2-benzoxazol-2-yl)-thiophenone, C26H26N2O2S). The limit of quantification (LOQ) was 0.05 w% for C, H, N and 0.02 w% for S. For samples without N and/or S, the content of these elements was determined and verified to be below the LOQ. X-ray diffraction analyses were carried out on a Bruker X8 APEX II CCD diffractometer at 100 K. ESI-MS were recorded on a Bruker AmaZon SL ion trap mass spectrometer (Bruker Daltonics GmbH). Data were obtained and processed with Compass 1.3 and Data Analysis 4.0 (Bruker Daltonics GmbH). Infrared spectra were attained on a Bruker Vertex 70 FT-IR-spectrometer with an ATR-unit (attenuated total reflection unit) in the range of 4000–600 cm^−1. Intensities of the reported bands are described with w for weak, m for medium and s for strong; broad signals are additionally specified with the letter b in front of these abbreviations. Cyclic voltammograms (CVs) were measured in a three-electrode cell using 2 mm diameter glassy carbon disk working electrode, a platinum auxiliary electrode and an Ag|Ag^+ reference electrode containing 0.1 M AgNO3. Measurements were carried out at room temperature using an EG&G PARC potentiostat/galvanostat 273A. The solutions were deoxygenized by purging a stream of argon for 3 min through the solution and the experiment was performed under an argon atmosphere. The potentials were measured in a freshly prepared solution of (n Bu4N)[BF4] (0.1 M) in acetonitrile using ferrocene (Fe(η^5-C5H5)2) (E1/2 = +0.72 V vs. NHE) as an internal standard and are quoted relative to the normal hydrogen electrode (NHE).
The electrochemical behavior of all complexes and the precursor Cp2WCl2 was studied by cyclic voltammetry with a scan rate of 200 mV/s, from −0.5 to +1.2 or +1.5 V. Measurements were performed in triplicate. Due to low water solubility of compounds 1–10 acetonitrile (MeCN) was utilized in order to reach the 2 mM concentration.

HCT116 cells [10] = assay: Resazurin assay, HCT116 2D monolayer; format: cell-based, human; settings: 96 h
Experimental: as §1
(§3) For the resazurin assay in monolayer cultures, cells were seeded into 96-well microculture plates (CytoOne, tissue culture treated, Starlab, Hamburg, Germany) in densities of 2 × 10^3 HCT116, 2 × 10^3 HT29 and 4 × 10^3 MCF-7 cells per well (each in 100 µL). For tests in 3D cultures, spheroids were grown as described above. After 24 h (for monolayers) or 4 days (for spheroids) the test compounds in the appropriate medium were added in serial dilution to the plates to obtain a total volume of 200 µL/well. Wells without cells, containing medium and resazurin (Alfa Aesar, Thermo Fisher, Kandel, Germany) solution were used as blanks. After 96 h exposure 20 µL of the resazurin solution (440 µM) were added to each well, followed by a 4 h (2D) or 12 h (3D) incubation period. Resorufin fluorescence was quantified at 530 nm (and a reference wavelength of 620 nm) by using a microplate reader (Synergy HT, BioTek) with Gen5^TM 3.10 software (BioTek).

[11] = tested on: HCT116 multicellular tumor spheroids; assay: Resazurin assay, HCT116 3D spheroids; format: cell-based, human; settings: 96 h, spheroids
Experimental: as §1
(§4) For growing multicellular tumor spheroids, 400 HCT116, 400 HT29 or 800 MCF-7 cells per well were plated into round-bottom ultra-low attachment 96-well plates (Corning, Glendale, AZ, USA) in the media described above and incubated at 37 °C for 96 h. Spheroids were treated with 10 µM of the two most cytotoxic compounds 3 and 4 for another 96 h. The diameters of the spheroids were measured with Cell^F software under a CKX41 Olympus microscope before treatment and in constant daily intervals over the 96 h treatment period. For statistical analysis the t-test with Welsh’s correction was implemented in GraphPad Prism software (Version 6.01).
as §3

HT29 cells [12] = assay: Resazurin assay, HT29 2D monolayer; format: cell-based, human; settings: 96 h
Experimental: as §1, §3

[13] = tested on: HT29 multicellular tumor spheroids; assay: Resazurin assay, HT29 3D spheroids; format: cell-based, human; settings: 96 h, spheroids
Experimental: as §1, §4, §3

MCF-7 cells [14] = assay: Resazurin assay, MCF-7 2D monolayer; format: cell-based, human; settings: 96 h
Experimental: as §1, §3

[15] = tested on: MCF-7 multicellular tumor spheroids; assay: Resazurin assay, MCF-7 3D spheroids; format: cell-based, human; settings: 96 h, spheroids
Experimental: as §1, §4, §3

[16] = tested on: HCT116, HT29 and MCF-7 cell lines; assay: ROS detection (DCFH-DA assay); format: cell-based, human; settings: 2, 20, 100 and 200 µM, 2 h
Experimental: Reactive oxygen species (ROS) generation was measured by means of the DCFH-DA assay. […] On the following day, cells were washed with 200 µL Hanks’ balanced salt solution (HBSS, Sigma-Aldrich, containing 1% FBS) and stained with 100 µL of 25 µM DCFH-DA (2′,7′-dichlorofluorescein diacetate, Sigma-Aldrich) in HBSS (containing 1% FBS) for 45 min at 37 °C in the dark. After the incubation period, cells were washed with 200 µL HBSS (1% FBS) and loaded with compounds at concentrations of 2 µM, 20 µM, 100 µM and 200 µM in 200 µL phenol-red-free MEM (1% FBS) in triplicates. As positive controls, cells were treated with 200 µM and 400 µM tert-butylhydroperoxide (Sigma-Aldrich). Wells containing only phenol-red-free medium with 1% FBS were used as blanks, and non-drug treated, cell containing wells as reference values. Fluorescence (excitation: 485/20 nm, emission: 516/20 nm) was recorded in 10 min intervals with the Synergy HT reader (BioTek) over 2 h.

HCT116 cells [17] = assay: Annexin V-FITC/PI apoptosis assay, HCT116; format: cell-based, human; settings: HCT116, 24 h, 200 µM
HT29 cells [18] = assay: Annexin V-FITC/PI apoptosis assay, HT29; settings: HT29, 24 h, 200 µM
MCF-7 cells [19] = assay: Annexin V-FITC/PI apoptosis assay, MCF-7; settings: MCF-7, 24 h, 200 µM

Structure (SMILES): N.N.[Cl][Pt][Cl] [Cisplatin]
- IC50 [1]: 14 ± 1 µM
- IC50 [2]: 3.8 ± 1 µM
- IC50 [3]: 2.3 ± 0.2 µM
- IC50 [4]: 0.073 ± 0.001 µM

Structure (SMILES): Cc1occc(=O)c1[O-].F[P-](F)(F)(F)(F)F.[W+4].c1cc[cH-]c1.c1cc[cH-]c1 [Compound 1, Bis(η^5-cyclopentadienyl)[2-methyl-3-(oxo-κO)-4-(1H)-pyran-4-ato-κO]tungsten(IV) hexafluorophosphate]
- activity in A549 [5]: no activity was observed
- IC50 [5]: > 200 µM
- activity in SW480 [6]: no activity was observed
- IC50 [6]: > 200 µM
- IC50 [7]: 85 ± 41 µM
- Solubility in PBS (1% DMSO) [8]: 230 µg/mL
- E1/2 [9]: 1.037 V

Structure (SMILES): Cc1occc(=O)c1[O-].[Cl-].[W+4].c1cc[cH-]c1.c1cc[cH-]c1 [Compound 1A, Bis(η^5-cyclopentadienyl)[2-methyl-3-(oxo-κO)-4-(1H)-pyran-4-ato-κO]tungsten(IV) chloride]
- activity in A549 [5]: no activity was observed
- IC50 [5]: > 200 µM
- activity in SW480 [6]: no activity was observed
- IC50 [6]: > 200 µM
- IC50 [7]: 147 ± 18 µM
- IC50 (HCT116 cells [10]): > 200 µM
- IC50 [11]: > 200 µM
- IC50 (HT29 cells [12]): > 200 µM
- IC50 [13]: > 200 µM
- IC50 (MCF-7 cells [14]): > 200 µM
- IC50 [15]: > 200 µM
- Solubility in PBS (1% DMSO) [8]: 5000 µg/mL
- intracellular ROS levels [16]: Pronounced elevation of ROS levels
- early apoptotic cells [%] AV+ / PI- (HCT116 cells [17]): 5.6 ± 2.1%
- late apoptotic cells [%] AV+ / PI+ (HCT116 cells [17]): 16.1 ± 4.6%
- necrotic cells [%] AV- / PI+ (HCT116 cells [17]): 3.8 ± 2.1%
- viable cells [%] AV- / PI- (HCT116 cells [17]): 74.5 ± 7.0%
- ∑apoptotic cells [%] (HCT116 cells [17]; sum of early and late): 21.7%
- early apoptotic cells [%] AV+ / PI- (HT29 cells [18]): 3.5 ± 2.5%
- late apoptotic cells [%] AV+ / PI+ (HT29 cells [18]): 4.3 ± 0.9%
- necrotic cells [%] AV- / PI+ (HT29 cells [18]): 4.4 ± 4.8%
- viable cells [%] AV- / PI- (HT29 cells [18]): 87.8 ± 4.0%
- ∑apoptotic cells [%] (HT29 cells [18]; sum of early and late): 7.8%
- early apoptotic cells [%] AV+ / PI- (MCF-7 cells [19]): 1.1 ± 0.6%
- late apoptotic cells [%] AV+ / PI+ (MCF-7 cells [19]): 3.2 ± 1.3%
- necrotic cells [%] AV- / PI+ (MCF-7 cells [19]): 2.3 ± 0.5%
- viable cells [%] AV- / PI- (MCF-7 cells [19]): 94.3 ± 2.3%
- ∑apoptotic cells [%] (MCF-7 cells [19]; sum of early and late): 4.3%

Structure (SMILES): [Cl-].[Cl-].[Mo+4].c1cc[cH-]c1.c1cc[cH-]c1 [Cp2MoCl2, Molybdenocene dichloride]
- IC50 [2]: > 200 µM
- IC50 [3]: > 200 µM
- IC50 [4]: > 200 µM
